Laboratory results as given in PubChem BioAssay AID330 (DTP/NCI, 2004).
“And” between values parts separate entries of the source, which are not always exact repeats. Identical values can stand only once. Inconclusive results and toxic doses are left out.

Tested on: P388 leukemia ip, CD2F1 mice, survival T/C
Assay: NCI In Vivo Anticancer Drug Screen. Data for tumor model P388 Leukemia (intraperitoneal) in CD2F1 (CDF1) mice
Settings: endpoint: median survival time, higher = longer survival
In short: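 Mice carrying the transplanted tumor received test compound or vehicle. Survival was recorded in each group, and the value is the treated-group measurement divided by that of the vehicle-treated control group.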

[1] = dose: 100.0 mg/kg/injection, schedule: Q01DX001 (ip), vehicle: saline with Tween-80
[2] = dose: 200.0 mg/kg/injection, schedule: Q01DX001 (ip), vehicle: saline with Tween-80
[3] = dose: 400.0 mg/kg/injection, schedule: Q01DX001 (ip), vehicle: saline with Tween-80
[4] = dose: 60.0 mg/kg/injection, schedule: Q01DX005 (ip), vehicle: saline with Tween-80
[5] = dose: 120.0 mg/kg/injection, schedule: Q01DX005 (ip), vehicle: saline with Tween-80
[6] = dose: 240.0 mg/kg/injection, schedule: Q01DX005 (ip), vehicle: saline with Tween-80
[7] = dose: 100.0 mg/kg/injection, schedule: Q01DX009 (ip), vehicle: saline with Tween-80
[8] = dose: 25.0 mg/kg/injection, schedule: Q01DX009 (ip), vehicle: saline with Tween-80
[9] = dose: 50.0 mg/kg/injection, schedule: Q01DX009 (ip), vehicle: saline with Tween-80
[10] = dose: 50.0 mg/kg/injection, schedule: Q01DX009 (ip), vehicle: saline
[11] = dose: 100.0 mg/kg/injection, schedule: Q01DX009 (ip), vehicle: saline
[12] = dose: 200.0 mg/kg/injection, schedule: Q01DX009 (ip), vehicle: saline

SMILES: CCC1(O)CN2CCc3c([nH]c4ccccc34)C(C(=O)OC)(c3cc4c(cc3OC)N(C)C3C(O)(C(=O)OC)C(OC(C)=O)C5(CC)C=CCN6CCC43C65)CC(C2=O)C1O (centres undefined)
- T/C (dose: 25.0 mg/kg/injection, schedule: Q01DX001 (ip), vehicle: distilled water + Tween-80): 107 % of control
- T/C (dose: 25.0 mg/kg/injection, schedule: Q01DX001 (ip), vehicle: suspension in saline): 104 % of control
- T/C (dose: 50.0 mg/kg/injection, schedule: Q01DX001 (ip), vehicle: suspension in saline): 110 % of control
- T/C (dose: 100.0 mg/kg/injection, schedule: Q01DX001 (ip), vehicle: suspension in saline): 120 % of control
- T/C (dose: 200.0 mg/kg/injection, schedule: Q01DX001 (ip), vehicle: distilled water + Tween-80): 154 % of control

SMILES: C1=C[N-]c2c3c(ccc2=C1)=CC=C[N-]3.C1=C[N-]c2c3c(ccc2=C1)=CC=C[N-]3.C1C[N-]C2C(C1)CCC1CC[N-]CC12.[Ni]
- T/C (dose: 3.12 mg/kg/injection, schedule: Q01DX005 (ip), vehicle: saline): 97 % of control
- T/C (dose: 6.25 mg/kg/injection, schedule: Q01DX005 (ip), vehicle: saline): 96 % of control

SMILES: O=c1cc(O)c1=O
- T/C (dose: 0.78 mg/kg/injection, schedule: Q01DX009 (ip), vehicle: saline): 96 % of control
- T/C (dose: 1.56 mg/kg/injection, schedule: Q01DX009 (ip), vehicle: saline): 109 % of control
- T/C (dose: 3.13 mg/kg/injection, schedule: Q01DX009 (ip), vehicle: saline): 91 % of control
- T/C (dose: 6.25 mg/kg/injection, schedule: Q01DX009 (ip), vehicle: saline): 98 % of control

SMILES: Cn1ccn2cnnc2c1=O
- T/C [1]: 100 % of control
- T/C [2]: 106 % of control
- T/C [3]: 99 % of control

SMILES: c1ccc2c(NCCCCNc3c4ccccc4nc4ccccc34)c3ccccc3nc2c1
- T/C (dose: 0.62 mg/kg/injection, schedule: Q## X009 (ip), vehicle: lactic acid): 101 % of control
- T/C (dose: 1.25 mg/kg/injection, schedule: Q## X009 (ip), vehicle: lactic acid): 102 % of control
- T/C (dose: 2.5 mg/kg/injection, schedule: Q## X009 (ip), vehicle: lactic acid): 104 % of control
- T/C (dose: 5.0 mg/kg/injection, schedule: Q## X009 (ip), vehicle: lactic acid): 104 % of control
- T/C (dose: 10.0 mg/kg/injection, schedule: Q## X009 (ip), vehicle: lactic acid): 110 % of control

SMILES: CNc1nc(Cl)cc2onc(C)c12
- T/C [4]: 94 % of control
- T/C [5]: 100 % of control
- T/C [6]: 103 % of control

SMILES: COC(=O)Cc1nc2ccccc2s1
- T/C [4]: 102 % of control
- T/C [5]: 104 % of control
- T/C [6]: 103 % of control

SMILES: O=C(O)C(Cc1ccccc1)N1C(=O)C=CC1=O (centres undefined)
- T/C (dose: 10.0 mg/kg/injection, schedule: Q01DX009 (ip), vehicle: saline with Tween-80): 112 % of control
- T/C (dose: 20.0 mg/kg/injection, schedule: Q01DX009 (ip), vehicle: saline with Tween-80): 107 % of control
- T/C (dose: 40.0 mg/kg/injection, schedule: Q01DX009 (ip), vehicle: saline with Tween-80): 104 % of control and 95 % of control
- T/C (dose: 50.0 mg/kg/injection, schedule: Q01DX009 (ip), vehicle: Klucel (hydroxypropylcellulose) (HPC)): 89 % of control
- T/C (dose: 100.0 mg/kg/injection, schedule: Q01DX009 (ip), vehicle: Klucel (hydroxypropylcellulose) (HPC)): 90 % of control

SMILES: CCCCCCCCCCCCCCCCCC(=O)[Se][Se]C(=O)CCCCCCCCCCCCCCCCC
- T/C (dose: 50.0 mg/kg/injection, schedule: Q01DX009 (ip), vehicle: saline + Tween-80 + alcohol): 99 % of control
- T/C (dose: 100.0 mg/kg/injection, schedule: Q01DX009 (ip), vehicle: saline + Tween-80 + alcohol): 104 % of control
- T/C (dose: 200.0 mg/kg/injection, schedule: Q01DX009 (ip), vehicle: saline + Tween-80 + alcohol): 104 % of control

SMILES: COC(=O)C1=C(C2=C(C(=O)OC)CCC2)CCC1
- T/C (dose: 100.0 mg/kg/injection, schedule: Q04DX002 (ip), vehicle: saline with Tween-80): 93 % of control
- T/C (dose: 200.0 mg/kg/injection, schedule: Q04DX002 (ip), vehicle: saline with Tween-80): 97 % of control
- T/C (dose: 400.0 mg/kg/injection, schedule: Q04DX002 (ip), vehicle: saline with Tween-80): 100 % of control

SMILES: O=C(NC(CO)C(O)c1ccc(N=Nc2cccc3ccccc23)cc1)C(Cl)Cl (centres undefined)
- T/C [7]: 95 % of control
- T/C (dose: 200.0 mg/kg/injection, schedule: Q01DX009 (ip), vehicle: saline with Tween-80): 104 % of control
- T/C (dose: 400.0 mg/kg/injection, schedule: Q01DX009 (ip), vehicle: saline with Tween-80): 104 % of control

SMILES: C=CCOCC(O)Cn1cnc2c(N)ncnc21 (centres undefined)
- T/C (dose: 50.0 mg/kg/injection, schedule: Q01DX005 (ip), vehicle: Klucel (hydroxypropylcellulose) (HPC)): 97 % of control
- T/C (dose: 100.0 mg/kg/injection, schedule: Q01DX005 (ip), vehicle: Klucel (hydroxypropylcellulose) (HPC)): 106 % of control
- T/C (dose: 200.0 mg/kg/injection, schedule: Q01DX005 (ip), vehicle: Klucel (hydroxypropylcellulose) (HPC)): 100 % of control

SMILES: O=N[O-].O=N[O-].[NH-]CC[NH-].[Pt+2]
- T/C [8]: 95 % of control
- T/C [9]: 100 % of control
- T/C [7]: 95 % of control

SMILES: CC1SCCCS1
- T/C [10]: 98 % of control
- T/C [11]: 98 % of control
- T/C [12]: 97 % of control
- T/C (dose: 400.0 mg/kg/injection, schedule: Q01DX009 (ip), vehicle: saline): 97 % of control

SMILES: O=C(Nc1cccc2nsnc12)c1ccc(C(=O)Nc2cccc3nsnc23)cc1
- T/C (dose: 0.46 mg/kg/injection, schedule: Q01DX005 (ip), vehicle: Klucel (hydroxypropylcellulose) (HPC)): 97 % of control
- T/C (dose: 0.93 mg/kg/injection, schedule: Q01DX005 (ip), vehicle: Klucel (hydroxypropylcellulose) (HPC)): 96 % of control
- T/C (dose: 1.87 mg/kg/injection, schedule: Q01DX005 (ip), vehicle: Klucel (hydroxypropylcellulose) (HPC)): 98 % of control
- T/C (dose: 30.0 mg/kg/injection, schedule: Q01DX005 (ip), vehicle: Klucel (hydroxypropylcellulose) (HPC)): 86 % of control
- T/C (dose: 240.0 mg/kg/injection, schedule: Q01DX005 (ip), vehicle: Klucel (hydroxypropylcellulose) (HPC)): 98 % of control

SMILES: Cc1ncc(Cl)c2cc3ccccc3cc12
- T/C [10]: 101 % of control and 89 % of control
- T/C [11]: 99 % of control
- T/C [12]: 99 % of control and 94 % of control

SMILES: C/C(CC(O)(c1ccccc1)c1ccccc1)=N\SC(c1ccccc1)(c1ccccc1)c1ccccc1
- T/C [1]: 106 % of control
- T/C [2]: 100 % of control
- T/C [3]: 98 % of control

SMILES: OCC(O)COCCCCCCCCCCCC1C=CCC1 (centres undefined)
- T/C (dose: 100.0 mg/kg/injection, schedule: Q04DX003 (ip), vehicle: saline): 99 % of control
- T/C (dose: 200.0 mg/kg/injection, schedule: Q04DX003 (ip), vehicle: saline): 99 % of control
- T/C (dose: 400.0 mg/kg/injection, schedule: Q04DX003 (ip), vehicle: saline): 99 % of control

SMILES: O=C(Nc1ccc(Cl)c(Cl)c1Cl)/C(Cl)=C1/Sc2ccccc2NC1=O
- T/C (dose: 50.0 mg/kg/injection, schedule: Q01DX005 (ip), vehicle: saline with Tween-80): 108 % of control
- T/C (dose: 100.0 mg/kg/injection, schedule: Q01DX005 (ip), vehicle: saline with Tween-80): 101 % of control
- T/C (dose: 200.0 mg/kg/injection, schedule: Q01DX005 (ip), vehicle: saline with Tween-80): 101 % of control

SMILES: FC(F)(F)c1ccc(-c2ccc(OCCN3CCCC3)cc2)cc1
- T/C (dose: 12.5 mg/kg/injection, schedule: Q01DX009 (ip), vehicle: saline with Tween-80): 86 % of control
- T/C [8]: 86 % of control
- T/C [9]: 86 % of control
- T/C (dose: 50.0 mg/kg/injection, schedule: Q04DX003 (ip), vehicle: saline sonified): 87 % of control

SMILES: CCCCCCCCCCCC(=O)NC1CCS(=O)(=O)C1 (centres undefined)
- T/C (dose: 37.5 mg/kg/injection, schedule: Q01DX009 (ip), vehicle: Klucel (hydroxypropylcellulose) (HPC)): 99 % of control
- T/C (dose: 75.0 mg/kg/injection, schedule: Q01DX009 (ip), vehicle: Klucel (hydroxypropylcellulose) (HPC)): 96 % of control
- T/C (dose: 150.0 mg/kg/injection, schedule: Q01DX009 (ip), vehicle: Klucel (hydroxypropylcellulose) (HPC)): 97 % of control
- T/C (dose: 300.0 mg/kg/injection, schedule: Q01DX009 (ip), vehicle: Klucel (hydroxypropylcellulose) (HPC)): 95 % of control

SMILES: CC(C)(C)SC(=O)C1CCCCC1
- T/C [9]: 103 % of control
- T/C [7]: 104 % of control

SMILES: CCC[CH2][Pb]([CH2]CCC)([O]C(C)=O)[O]C(C)=O
- T/C (dose: 1.56 mg/kg/injection, schedule: Q04DX003 (ip), vehicle: saline): 114 % of control
- T/C (dose: 3.13 mg/kg/injection, schedule: Q04DX003 (ip), vehicle: saline): 118 % of control
- T/C (dose: 6.25 mg/kg/injection, schedule: Q04DX003 (ip), vehicle: saline): 120 % of control
